Data published in publication PMC6289772 (Cancer, 2018).

Experiments:
[1] = Axitinib plasma pharmacokinetics, phase 1 trial; type: in vivo
[2] = Toxicity / dose-limiting toxicity evaluation, phase 1 trial; type: in vivo
[3] = system: recurrent or refractory solid tumors; experiment: Tumor response assessment; type: in vivo, human (children and adolescents)
[4] = type: in vivo, human (children and adolescents)
[5] = cited from earlier work
[6] = median (range), Dose Level 2.4 mg/m^2, Day 1 (n=12)
[7] = median (range), Dose Level 3.2 mg/m^2, Day 1 (n=6)

Compound: CNC(=O)c1ccccc1Sc1ccc2c(/C=C/c3ccccn3)n[nH]c2c1 [Axitinib]
- median oral clearance CL/F ([1]; Day 1, children <12 years): 28.6 L/h/m^2
- median oral clearance CL/F ([1]; Day 1, children ≥12 years): 19.7 L/h/m^2
- median oral clearance CL/F ([1]; Day 1, females): 19.7 L/h/m^2
- median oral clearance CL/F ([1]; Day 1, males): 24.2 L/h/m^2
- half-life ([1]; human, plasma, oral): 144 min
- AUC(0-t) ([1]; human, plasma, oral, 2.4 mg/m2, AUC0–8h, median (range), Dose Level 2.4 mg/m^2, Day 1 (n=12)): 91 ng·h/mL
- AUC(0-t) ([1]; human, plasma, oral, 2.4 mg/m2, AUC0–8h, median (range), Dose Level 2.4 mg/m^2, Day 8 (n=12)): 147 ng·h/mL
- Cmax ([1]; human, plasma, oral, 2.4 mg/m2, Cmax, median (range), Dose Level 2.4 mg/m^2, Day 1 (n=12)): 23.8 ng/mL
- Cmax ([1]; human, plasma, oral, 2.4 mg/m2, Cmax, median (range), Dose Level 2.4 mg/m^2, Day 8 (n=12)): 47.4 ng/mL
- half-life ([1]; human, plasma, oral, 2.4 mg/m2, Half life, median (range), Dose Level 2.4 mg/m^2, Day 1 (n=12)): 132 min
- half-life ([1]; human, plasma, oral, 2.4 mg/m2, Half life, median (range), Dose Level 2.4 mg/m^2, Day 8 (n=12)): 150 min
- Tmax ([1]; human, plasma, oral, 2.4 mg/m2, Tmax, median (range), Dose Level 2.4 mg/m^2, Day 1 (n=12)): 2 h
- Tmax ([1]; human, plasma, oral, 2.4 mg/m2, Tmax, median (range), Dose Level 2.4 mg/m^2, Day 8 (n=12)): 1.5 h
- AUC(0-t) ([1]; human, plasma, oral, 3.2 mg/m2, AUC0–8h, median (range), Dose Level 3.2 mg/m^2, Day 1 (n=6)): 134 ng·h/mL
- AUC(0-t) ([1]; human, plasma, oral, 3.2 mg/m2, AUC0–8h, median (range), Dose Level 3.2 mg/m^2, Day 8 (n=5)): 140 ng·h/mL
- Cmax ([1]; human, plasma, oral, 3.2 mg/m2, Cmax, median (range), Dose Level 3.2 mg/m^2, Day 1 (n=6)): 38 ng/mL
- half-life ([1]; human, plasma, oral, 3.2 mg/m2, Half life, median (range), Dose Level 3.2 mg/m^2, Day 1 (n=6)): 156 min
- half-life ([1]; human, plasma, oral, 3.2 mg/m2, Half life, median (range), Dose Level 3.2 mg/m^2, Day 8 (n=5)): 108 min
- Tmax ([1]; human, plasma, oral, 3.2 mg/m2, Tmax, median (range), Dose Level 3.2 mg/m^2, Day 1 (n=6)): 2 h
- Tmax ([1]; human, plasma, oral, 3.2 mg/m2, Tmax, median (range), Dose Level 3.2 mg/m^2, Day 8 (n=5)): 2 h
- half-life ([1]; human, plasma, oral, half-life (range), all patients): 42 to 312 min
- half-life ([1]; human, plasma, oral, median half-life, Day 8, all patients): 150 min
- accumulation ratio (day 8 AUC0–8h versus day 1 AUC0–8h) ([1]; median (range), all patients): 1.8 (0.3 – 4.7)
- Cl/F [1, 6]: 28.0 (9.8–230.1) L/h
- Cl/m^2 [1, 6]: 21.4 (6.0–230.1) L/h/m^2
- V/F [1, 6]: 74.9 (43.6–888.7) L
- V/m^2 [1, 6]: 67.4 (39.1–888.7) L/m^2
- Cl/F [1, 7]: 32.6 (14.2–65.2) L/h
- Cl/m^2 [1, 7]: 19.9 (11.4–61.5) L/h/m^2
- V/F [1, 7]: 99.4 (48.9–150.6) L
- V/m^2 [1, 7]: 65.5 (39.1–101.6) L/m^2
- Cmax ([1]; median (range), Dose Level 3.2 mg/m^2, Day 8 (n=5)): 41.5 (15.5–76.5) ng/mL
- Abdominal pain, Grade 2 ([2]; human, in vivo): 1
- Alanine aminotransferase increased, Grade 2 ([2]; human, in vivo): 1
- Anemia, Grade 1 ([2]; human, in vivo): 1
- Anorexia, Grade 1 ([2]; human, in vivo): 1
- Fatigue, Grade 1 ([2]; human, in vivo): 3
- Fatigue, Grade 2 ([2]; human, in vivo): 1
- Headache, Grade 2 ([2]; human, in vivo): 1
- Hemoglobin increased, Grade 1 ([2]; human, in vivo): 1
- Hemoglobin increased, Grade 2 ([2]; human, in vivo): 2
- Hemoglobin increased, Grade 3 ([2]; human, in vivo): 1
- Hypertension, Grade 2 ([2]; human, in vivo): 3
- Hypertension, Grade 3 ([2]; human, in vivo): 1
- Hypophosphatemia, Grade 1 ([2]; human, in vivo): 1
- Hypothyroidism, Grade 2 ([2]; human, in vivo): 2
- Leukopenia, Grade 1 ([2]; human, in vivo): 1
- Lipase increased, Grade 2 ([2]; human, in vivo): 2
- Lipase increased, Grade 3 ([2]; human, in vivo): 1
- Lymphopenia, Grade 1 ([2]; human, in vivo): 1
- Nausea, Grade 1 ([2]; human, in vivo): 1
- Nausea, Grade 2 ([2]; human, in vivo): 2
- Neutropenia, Grade 2 ([2]; human, in vivo): 2
- Palmar-plantar erythrodysesthesia syndrome, Grade 1 ([2]; human, in vivo): 1
- Palmar-plantar erythrodysesthesia syndrome, Grade 2 ([2]; human, in vivo): 1
- Proteinuria, Grade 1 ([2]; human, in vivo): 2
- Proteinuria, Grade 2 ([2]; human, in vivo): 1
- Vomiting, Grade 1 ([2]; human, in vivo): 1
- Anemia, Grade 1 ([2]; human, in vivo, 1 cycle): 3
- Anemia, Grade 2 ([2]; human, in vivo, 1 cycle): 2
- Hemoglobin increased, Grade 1 ([2]; human, in vivo, 1 cycle): 3
- Hypertension, Grade 2 ([2]; human, in vivo, 1 cycle): 4
- Hypophosphatemia, Grade 1 ([2]; human, in vivo, 1 cycle): 2
- Hypothyroidism, Grade 1 ([2]; human, in vivo, 1 cycle): 1
- Hypothyroidism, Grade 2 ([2]; human, in vivo, 1 cycle): 2
- Leukopenia, Grade 1 ([2]; human, in vivo, 1 cycle): 1
- Lipase increased, Grade 1 ([2]; human, in vivo, 1 cycle): 1
- Lipase increased, Grade 2 ([2]; human, in vivo, 1 cycle): 1
- Lymphopenia, Grade 1 ([2]; human, in vivo, 1 cycle): 1
- Lymphopenia, Grade 2 ([2]; human, in vivo, 1 cycle): 1
- Neutropenia, Grade 2 ([2]; human, in vivo, 1 cycle): 1
- Palmar-plantar erythrodysesthesia syndrome, Grade 2 ([2]; human, in vivo, 1 cycle): 2
- Proteinuria, Grade 1 ([2]; human, in vivo, 1 cycle): 2
- Rash acneiform, Grade 1 ([2]; human, in vivo, 1 cycle): 2
- Sore throat, Grade 1 ([2]; human, in vivo, 1 cycle): 2
- Thrombocytopenia, Grade 1 ([2]; human, in vivo, 1 cycle): 1
- Vomiting, Grade 1 ([2]; human, in vivo, 1 cycle): 3
- recommended phase 2 dose (RP2D) ([2]; human, in vivo, po, 28 days): 2.4 mg/m^2/dose
- DLTs at dose level 1 ([2]; in vivo): No DLTs
- growth plate abnormalities (tibia radiograph) ([2]; in vivo): No growth plate abnormalities were observed
- number of grade 3 toxicities (non-dose limiting) ([2]; in vivo): three
- maximum tolerated and recommended dose ([2]; orally twice daily, continuous 28-day cycles, children with refractory solid tumors): 2.4 mg/m^2/dose
- patients with partial response ([3]; alveolar soft part sarcoma, 15 patients with reportable response): One patient
- duration of partial response ([3]; patient with alveolar soft part sarcoma, prior to clinical progression): 6 months
- trends in AKI biomarkers (KIM-1, NGAL, IL-18) during axitinib therapy ([4]; cycle 1 or between dose levels): no trends were identified
- increase in urine UPC ratio per cycle ([4]; during axitinib therapy, not significant (P=0.30)): 4%
- maximum tolerated dose (MTD) in adults ([5]; PO BID): 5 mg
- median time to onset of grade 1–2 hypertension ([5]; adults): 16 days
- median time to onset of grade ≥ 3 hypertension ([5]; adults): 24 days
- patients with discontinuation due to axitinib related hypertension ([5]; adults): < 1%
- patients with dose interruptions due to axitinib related hypertension ([5]; adults): 12%
- patients with dose modification due to axitinib related hypertension ([5]; adults): 5%
